# Test results as given in ChEMBL document CHEMBL3774317, “Design and synthesis of novel tamoxifen analogues that avoid CYP2D6 metabolism” (Eur J Med Chem, 2016).
# Columns and labels:
# Assay type in all cases: functional
# HT-29 [1] = assay: Cytotoxicity against human HT-29 cells assessed as cell growth at 10^-7 M after 48 hrs by SRB assay; details: HT-29, 48 h, read-out: Activity
# [2] = Cytotoxicity against human LOXIMVI cells assessed as cell growth at 10^-7 M after 48 hrs by SRB assay; details: LOX IMVI, read-out: Activity
# MDA-MB-435 = assay: Cytotoxicity against human MDA-MB-435 cells assessed as cell growth at 10^-7 M after 48 hrs by SRB assay; details: MDA-MB-435, 48 h, read-out: Activity
# SK-MEL-28 = assay: Cytotoxicity against human SK-MEL-28 cells assessed as cell growth at 10^-7 M after 48 hrs by SRB assay; details: SK-MEL-28, 48 h, read-out: Activity
# [3] = Cytotoxicity against human RXF393 cells assessed as cell growth at 10^-7 M after 48 hrs by SRB assay; details: RXF 393, 48 h, read-out: Activity
# Malme-3M [4] = assay: Cytotoxicity against human MALME-3M cells assessed as cell growth at 10^-6 M after 48 hrs by SRB assay; details: read-out: Activity
# M14 = assay: Cytotoxicity against human M14 cells assessed as cell growth at 10^-6 M after 48 hrs by SRB assay; details: M14, 48 h, read-out: Activity
# SN12C = assay: Cytotoxicity against human SN12C cells assessed as cell growth at 10^-6 M after 48 hrs by SRB assay; details: read-out: Activity
# NCI-H226 = assay: Cytotoxicity against human NCI-H226 cells assessed as cell growth at 10^-5 M after 48 hrs by SRB assay; details: NCI-H226, 48 h, read-out: Activity
# [5] = Cytotoxicity against human COLO205 cells assessed as cell growth at 10^-5 M after 48 hrs by SRB assay; details: COLO 205, 48 h, read-out: Activity
# [6] = Cytotoxicity against human SNB75 cells assessed as cell growth at 10^-5 M after 48 hrs by SRB assay; details: SNB-75, 48 h, read-out: Activity
# NCI-H460 = assay: Cytotoxicity against human NCI-H460 cells assessed as cell growth at 10^-8 M after 48 hrs by SRB assay; details: NCI-H460, 48 h, read-out: Activity
# [7] = Cytotoxicity against human TK10 cells assessed as cell growth at 10^-8 M after 48 hrs by SRB assay; details: TK-10, 48 h, read-out: Activity
# [8] = Cytotoxicity against human MOLT4 cells assessed as cell growth at 10^-7 M after 48 hrs by SRB assay; details: MOLT-4, 48 h, read-out: Activity
# EKVX [9] = assay: Cytotoxicity against human EKVX cells assessed as cell growth at 10^-7 M after 48 hrs by SRB assay; details: read-out: Activity
# MDA-MB-231 [10] = assay: Cytotoxicity against human MDA-MB-231 cells assessed as cell growth at 10^-5 M after 48 hrs by SRB assay; details: MDA-MB-231, 48 h, read-out: Activity
# CCRF-CEM = assay: Cytotoxicity against human CCRF-CEM cells assessed as cell growth at 10^-4 M after 48 hrs by SRB assay; details: read-out: Activity
# EKVX [11] = assay: Cytotoxicity against human EKVX cells assessed as cell growth at 10^-4 M after 48 hrs by SRB assay; details: read-out: Activity
# [12] = Cytotoxicity against human HOP92 cells assessed as cell growth at 10^-4 M after 48 hrs by SRB assay; details: HOP-92, 48 h, read-out: Activity
# NCI-H522 = assay: Cytotoxicity against human NCI-H522 cells assessed as cell growth at 10^-4 M after 48 hrs by SRB assay; details: NCI-H522, 48 h, read-out: Activity
# HT-29 [13] = assay: Cytotoxicity against human HT-29 cells assessed as cell growth at 10^-4 M after 48 hrs by SRB assay; details: HT-29, 48 h, read-out: Activity
# [14] = Cytotoxicity against human HL-60(TB) cells assessed as cell growth at 50 nM after 48 hrs by SRB assay; details: HL-60, 48 h, read-out: Activity
# [15] = Cytotoxicity against human SF539 cells assessed as cell growth at 50 nM after 48 hrs by SRB assay; details: SF-539, 48 h, read-out: Activity
# [16] = Cytotoxicity against human Caki1 cells assessed as cell growth at 50 nM after 48 hrs by SRB assay; details: CAKI-1, 48 h, read-out: Activity
# [17] = Cytotoxicity against human TK10 cells assessed as cell growth at 50 nM after 48 hrs by SRB assay; details: TK-10, 48 h, read-out: Activity
# [18] = Cytotoxicity against human SNB75 cells assessed as cell growth at 50 uM after 48 hrs by SRB assay; details: SNB-75, 48 h, read-out: Activity
# Malme-3M [19] = assay: Cytotoxicity against human MALME-3M cells assessed as cell growth at 50 uM after 48 hrs by SRB assay; details: read-out: Activity
# MDA-MB-231 [20] = assay: Cytotoxicity against human MDA-MB-231 cells assessed as cell growth at 50 uM after 48 hrs by SRB assay; details: MDA-MB-231, 48 h, read-out: Activity
# [21] = Cytotoxicity against human DU145 cells assessed as cell growth at 0.5 uM after 48 hrs by SRB assay; details: DU-145, 48 h, read-out: Activity
# SR = assay: Cytotoxicity against human SR cells assessed as cell growth at 5 uM after 48 hrs by SRB assay; details: read-out: Activity
# [22] = Cytotoxicity against human SF268 cells assessed as cell growth at 5 nM after 48 hrs by SRB assay; details: SF-268, 48 h, read-out: Activity
# [23] = Cytotoxicity against human LOXIMVI cells assessed as cell growth at 5 nM after 48 hrs by SRB assay; details: LOX IMVI, read-out: Activity
# [24] = Cytotoxicity against human RXF393 cells assessed as cell growth at 5 nM after 48 hrs by SRB assay; details: RXF 393, 48 h, read-out: Activity
# [25] = Cytotoxicity against human BT549 cells assessed as cell growth at 5 nM after 48 hrs by SRB assay; details: BT-549, 48 h, read-out: Activity
# T47D = assay: Cytotoxicity against human T47D cells assessed as cell growth at 5 nM after 48 hrs by SRB assay; details: read-out: Activity
# [26] = Cytotoxicity against human HCT15 cells assessed as cell growth at 5 uM after 48 hrs by SRB assay; details: HCT-15, 48 h, read-out: Activity
# [27] = Cytotoxicity against human SF268 cells assessed as cell growth at 5 uM after 48 hrs by SRB assay; details: SF-268, 48 h, read-out: Activity
# [28] = Cytotoxicity against human LOXIMVI cells assessed as cell growth at 5 uM after 48 hrs by SRB assay; details: LOX IMVI, read-out: Activity
# [29] = Cytotoxicity against human OVCAR3 cells assessed as cell growth at 5 uM after 48 hrs by SRB assay; details: OVCAR-3, 48 h, read-out: Activity
# 786-0 = assay: Cytotoxicity against human 786-0 cells assessed as cell growth at 5 uM after 48 hrs by SRB assay; details: 786-0, 48 h, read-out: Activity
# MDA-MB-231 [30] = assay: Cytotoxicity against human MDA-MB-231 cells assessed as cell growth at 5 uM after 48 hrs by SRB assay; details: MDA-MB-231, 48 h, read-out: Activity
# [31] = Cytotoxicity against human HOP92 cells assessed as cell growth at 50 uM after 48 hrs by SRB assay; details: HOP-92, 48 h, read-out: Activity
smiles,measurement,setting,value
C/C(=C(/c1ccc(O)cc1)c1ccc(OCCN2CCCC2)cc1)c1ccccc1,growth at 0.1 µM,HT-29 [1],97%
same,growth at 0.1 µM,[2],95%
same,growth at 0.1 µM,MDA-MB-435,97%
same,growth at 0.1 µM,SK-MEL-28,97%
same,growth at 0.1 µM,[3],105%
same,growth at 1 µM,Malme-3M [4],88%
same,growth at 1 µM,M14,91%
same,growth at 1 µM,SN12C,101%
same,growth at 10 µM,NCI-H226,56%
same,growth at 10 µM,[5],-79%
same,growth at 10 µM,[6],23%
same,growth at 0.01 µM,NCI-H460,106%
same,growth at 0.01 µM,[7],96%
same,growth at 0.1 µM,[8],101%
same,growth at 0.1 µM,EKVX [9],93%
same,growth at 10 µM,MDA-MB-231 [10],-10%
same,growth at 100 µM,CCRF-CEM,-71%
same,growth at 100 µM,EKVX [11],-100%
same,growth at 100 µM,[12],-88%
same,growth at 100 µM,NCI-H522,-82%
same,growth at 100 µM,HT-29 [13],-91%
CCCCCCCCCC(=O)Oc1ccc(/C(=C(/C)c2ccccc2)c2ccc(OCCN3CCCC3)cc2)cc1,growth at 0.05 µM,[14],98%
same,growth at 0.05 µM,[15],98%
same,growth at 0.05 µM,[16],82%
same,growth at 0.05 µM,[17],97%
same,growth at 50 µM,[18],-90%
same,growth at 50 µM,Malme-3M [19],-82%
same,growth at 50 µM,MDA-MB-231 [20],-67%
same,growth at 0.5 µM,[21],81%
same,growth at 5 µM,SR,90%
same,growth at 0.005 µM,[22],100%
same,growth at 0.005 µM,[23],97%
same,growth at 0.005 µM,[24],101%
same,growth at 0.005 µM,[25],100%
same,growth at 0.005 µM,T47D,69%
same,growth at 5 µM,[26],72%
same,growth at 5 µM,[27],83%
same,growth at 5 µM,[28],89%
same,growth at 5 µM,[29],86%
same,growth at 5 µM,786-0,93%
same,growth at 5 µM,MDA-MB-231 [30],102%
same,growth at 50 µM,[31],-75%
